In patent publication US20210198256A1, “COMPOUNDS FOR THE DEGRADATION OF BRD9 OR MTH1” (C4 Therapeutics, Inc., priority 2018, published 2021):

These molecules were tested on SMARTCAR-MTH1-wt-HiBiT (Jurkat.7 cells) (assay: HiBit Lytic Assay (HiBit DC50, MTH1 degraders of Table 2)). Conditions: Jurkat.7 SMARTCAR-MTH1-wt-HiBiT cells, compound treatment time 4 hr, 11-point half log dose response.
Assay type: cell-based, human
Experimental: Example 3. HiBit Lytic Assay
• Compound is made at 10 mM, half log dilution, 11 points. • MDR plates can also be ordered from Frontier with same format. • 1. Barcode a 384LDV plate (384-well Low Dead Volume Microplate, Labcyte LP-0200) (Echo compatible) on the left side. • 2. Transfer 13.6 μL of 10 mM compound into column 1 of LDV plate (Labcyte). • 3. Fill column 2-11 and column 23 of MDR plate with 9.30 μL of DMSO. • 4. Serial dilute 3.16 fold from column 1 to 2 by transferring 4.30 μL from column 1 to column 2, and so on to column 11. *Change tip in every dilution to prevent compound carryover effect! • 5. Seal the plate with Plate Sealer, then store the MDR plate at room temperature for short term storage and in −20° C. for long term storage.
• Cells are treated with 30 nL of each compound at 10 mM, half log dilution, 11 points with final concentration of 1000 nM or 833 nM, half log dilution, 11 points, in duplicates. Final DMSO concentration is 0.1%. • 1. Barcode the plates made on the left side and label the plates with silver marker. • 2. Dispense with the following scheme: • a. 30 nL of compound into corresponding wells in cell plates via Echo550 with “MDR32_HiBiT16_30 nL”. Top concentration will be 1000 nM. • 3. Seal the plate with Plate Sealer.
• Cells are dispensed at density specified in Cell Line Table in 384-well microplate. • 1. Culture cells to between 50-80% of confluence in sterile culture flasks of appropriate size. • 2. For Adherent Cell Lines: • a. Aspirate off growth media in culture flask, and wash off the Phenol Red media with 5 mL of 1×PBS. • b. Add 5 mL of Trypsin to the cells, incubate at 37° C. for 5 minutes. • c. Add 5 mL of growth media to the trypsinzed cells, and resuspend. • 3. Remove 10 μL of cells, and resuspend the cells with 10 μL of Trypan Blue. Insert the solution to counting chamber slide, and count the cells via cell counter. • 4. Adjust the cell concentration to specified plating density, and strain the cells with cell strainer. • 5. Dispense the cells via E1-ClipTip™ Electronic Multichannel Pipettes or Multidrop™ Combi Reagent Dispenser with Standard tube dispensing cassette: • a. Prime the cassette with 10-20 mL of ddH2O. • b. Prime the cassette with 10-20 mL of cells. • c. Dispense the cells at low speed for 30 μL/well in Corning® 384 Well Low Flange Black Flat Bottom Polystyrene TC-Treated Microplate. • d. Wash the cassette with 10-20 mL of ddH2O, follow by 10-20 mL of 70% EtOH, then again with 10-20 mL of ddH2O. • 6. Incubate the plates at 37° C.×compound treatment time.
• 1. If not already, bring Nano-Glo® HiBiT Lytic Buffer to room temperature. • 2. Determine the amount of reagent needed. A volume of reagent equal to the volume of media in the well should be added (i.e. 30 μL of cells will need 30 μL of HiBiT Lytic reagent). • 3. Into a given volume of buffer, dilute the substrate 50-fold and the LgBiT protein 100-fold. For example, to make 10 ml of reagent, add the following: • 10 ml Nano-Glo® HiBiT Lytic Buffer • 200 μl Nano-Glo® HiBiT Lytic Substrate • 100 μl LgBiT Protein • The reagent should be reconstituted immediately before use. However, once reconstituted, it should take about 4 hours for the activity to decrease 10%. • 4. Cool down the cell plate to room temperature for 10-15 minutes without lid. • 5. Dispense the HiBiT Lytic Reagent via E1-ClipTip™ Electronic Multichannel Pipettes or Multidrop™ Combi Reagent Dispenser with Standard tube dispensing cassette: • a. Prime the cassette with 10-20 mL of ddH2O. • b. Prime the cassette with 10-20 mL of CTG 2.0. • c. Dispense the HiBiT Lytic Reagent at medium speed for 30 μL/well in cell plate to column 1-23 (column 24 will be used as plate background). • d. Wash the cassette with 10-20 mL of ddH2O, follow by 10-20 mL of 70% EtOH, then again with 10-20 mL of ddH2O. • 6. Incubate the cell plate at room temperature for 10 minutes without lid. • 7. […]

DC50, < 0.1 µM:
CNC(=O)c1cnc2ccc(NCCCCCCCCCCNC(=O)CNc3cccc4c3C(=O)N(C3CCC(=O)NC3=O)C4=O)cc2c1Nc1ccccc1 (centres unmarked) [Compound 451, 6-((10-(2-((2-(2,6-dioxopiperidin-3-yl)-1,3-dioxoisoindolin-4-yl)amino)acetamido)decyl)amino)-N-methyl-4-(phenylamino)quinoline-3-carboxamide]
CNC(=O)c1cnc2ccc(-c3ccc(C(=O)NCCCCNC(=O)CCc4cccc5c4CN(C4CCC(=O)NC4=O)C5=O)cc3)cc2c1Nc1ccccc1 (centres unmarked) [Compound 374, 4-anilino-6-[4-[4-[3-[2-(2,6-dioxo-3-piperidyl)-1-oxo-isoindolin-4-yl]propanoylamino]butylcarbamoyl]phenyl]-N-methyl-quinoline-3-carboxamide]
CNC(=O)c1cnc2ccc(NCCCCCCCCCCNC(=O)[C@H](C)Nc3cccc4c3C(=O)N(C3CCC(=O)NC3=O)C4=O)cc2c1Nc1ccccc1 (stereo partly drawn) [Compound 445, 6-((10-((2S)-2((2-(2,6-dioxopiperidin-3-yl)-1,3-dioxoisoindolin-4-yl)amino)propanamido)decyl)amino)-N-methyl-4-(phenylamino)quinoline-3-carboxamide]
NC(=O)c1cnc2ccc(-c3ccc(C(=O)NCCCNC(=O)CNc4cccc5c4C(=O)N(C4CCC(=O)NC4=O)C5=O)cc3)cc2c1Nc1ccccc1 (centres unmarked) [Compound 307, 6-(4-((3-(2-((2-(2,6-dioxopiperidin-3-yl)-1,3-dioxoisoindolin-4-yl)amino)acetamido)propyl)carbamoyl)phenyl)-4-(phenylamino)quinoline-3-carboxamide]
CNC(=O)c1cnc2ccc(-c3ccc(C(=O)NCCCCNC(=O)CNc4cccc5c4C(=O)N(C4CCC(=O)NC4=O)C5=O)nc3)cc2c1Nc1ccccc1 (centres unmarked) [Compound 358, 4-anilino-6-[6-[4-[[2-[[2-(2,6-dioxo-3-piperidyl)-1,3-dioxo-isoindolin-4-yl]amino]acetyl]amino]butylcarbamoyl]-3-pyridyl]-N-methyl-quinoline-3-carboxamide]
CNC(=O)c1cnc2ccc(-c3ccc(CCCCCNC(=O)CNc4cccc5c4C(=O)N(C4CCC(=O)NC4=O)C5=O)nc3)cc2c1Nc1ccccc1 (centres unmarked) [Compound 385, 4-anilino-6-[6-[5-[[2-[[2-(2,6-dioxo-3-piperidyl)-1,3-dioxo-isoindolin-4-yl]amino]acetyl]amino]pentyl]-3-pyridyl]-N-methyl-quinoline-3-carboxamide]
CN(CC(=O)NCCCCNC(=O)c1ccc(-c2ccc3ncc(C(N)=O)c(Nc4ccccc4)c3c2)cc1)c1cccc2c1C(=O)N(C1CCC(=O)NC1=O)C2=O (centres unmarked) [Compound 301, 4-anilino-6-[4-[4-[[2-[[2-(2,6-dioxo-3-piperidyl)-1,3-dioxo-isoindolin-4-yl]-methyl-amino]acetyl]amino]butylcarbamoyl]phenyl]quinoline-3-carboxamide]
CNC(=O)c1cnc2ccc(-c3ccc(C(=O)NCCCNC(=O)CNc4cccc5c4C(=O)N(C4CCC(=O)NC4=O)C5=O)cc3)cc2c1Nc1ccccc1 (centres unmarked) [Compound 472, 6-(4-((3-(2-((2-(2,6-dioxopiperidin-3-yl)-1,3-dioxoisoindolin-4-yl)amino)acetamido)propyl)carbamoyl)phenyl)-N-methyl-4-(phenylamino)quinoline-3-carboxamide]
CNC(=O)c1cnc2ccc(-c3ccc(C(=O)NCCCCNC(=O)COc4cccc5c4C(=O)N(C4CCC(=O)NC4=O)C5=O)nc3)cc2c1Nc1ccccc1 (centres unmarked) [Compound 357, 4-anilino-6-[6-[4-[[2-[2-(2,6-dioxo-3-piperidyl)-1,3-dioxo-isoindolin-4-yl]oxyacetyl]amino]butylcarbamoyl]-3-pyridyl]-N-methyl-quinoline-3-carboxamide]
NC(=O)c1cnc2ccc(NC(=O)CCCCCCCCCNC(=O)COc3cccc4c3C(=O)N(C3CCC(=O)NC3=O)C4=O)cc2c1Nc1ccccc1 (centres unmarked) [Compound 467, 6-(10-(2-((2-(2,6-dioxopiperidin-3-yl)-1,3-dioxoisoindolin-4-yl)oxy)acetamido)decanamido)-4-(phenylamino)quinoline-3-carboxamide]
NC(=O)c1cnc2ccc(-c3ccc(C(=O)NCCCCNC(=O)COc4cccc5c4C(=O)N(C4CCC(=O)NC4=O)C5=O)cc3)cc2c1Nc1ccccc1 (centres unmarked) [Compound 300, 4-anilino-6-[4-[4-[[2-[2-(2,6-dioxo-3-piperidyl)-1,3-dioxo-isoindolin-4-yl]oxyacetyl]amino]butylcarbamoyl]phenyl]quinoline-3-carboxamide]
CNc1c(C(=O)NC2CC2)cnc2cc(F)c(-c3ccc(C(=O)NCCCCNC(=O)CCc4cccc5c4CN(C4CCC(=O)NC4=O)C5=O)c(F)c3)cc12 (centres unmarked) [Compound 419, N-cyclopropyl-6-[4-[4-[3-[2-(2,6-dioxo-3-piperidyl)-1-oxo-isoindolin-4-yl]propanoylamino]butylcarbamoyl]-3-fluoro-phenyl]-7-fluoro-4-(methylamino)quinoline-3-carboxamide]
NC(=O)c1cnc2ccc(NCCCCCCCCNC(=O)COc3cccc4c3C(=O)N(C3CCC(=O)NC3=O)C4=O)cc2c1Nc1ccccc1 (centres unmarked) [Compound 466, 6-((8-(2-((2-(2,6-dioxopiperidin-3-yl)-1,3-dioxoisoindolin-4-yl)oxy)acetamido)octyl)amino)-4-(phenylamino)quinoline-3-carboxamide]
CNC(=O)c1cnc2ccc(-c3ccc(C(=O)NCCCCNC(=O)COc4cccc5c4C(=O)N(C4CCC(=O)NC4=O)C5=O)c(F)c3)cc2c1Nc1ccccc1 (centres unmarked) [Compound 351, 4-anilino-6-[4-[4-[[2-[2-(2,6-dioxo-3-piperidyl)-1,3-dioxo-isoindolin-4-yl]oxyacetyl]amino]butylcarbamoyl]-3-fluoro-phenyl]-N-methyl-quinoline-3-carboxamide]
CNc1c(C(=O)NC2CC2)cnc2cc(C(F)(F)F)c(-c3ccc(C(=O)NCCCCn4cc(C(C)(C)Nc5cccc6c5C(=O)N(C5CCC(=O)NC5=O)C6=O)nn4)nc3)cc12 (centres unmarked) [Compound 437, N-cyclopropyl-6-(6-((4-(4-(2-((2-(2,6-dioxopiperidin-3-yl)-1,3-dioxoisoindolin-4-yl)amino)propan-2-yl)-1H-1,2,3-triazol-1-yl)butyl)carbamoyl)pyridin-3-yl)-4-(methylamino)-7-(trifluoromethyl)quinoline-3-carboxamide]
O=C1CCC(N2C(=O)c3cccc(OCc4cn(CCCCNC(=O)c5ccc(-c6cc7c(Nc8ccccc8)c(C(=O)NC8CC8)cnc7cc6C(F)(F)F)cc5F)nn4)c3C2=O)C(=O)N1 (centres unmarked) [Compound 415, 4-anilino-N-cyclopropyl-6-[4-[4-[4-[[2-(2,6-dioxo-3-piperidyl)-1,3-dioxo-isoindolin-4-yl]oxymethyl]triazol-1-yl]butylcarbamoyl]-3-fluoro-phenyl]-7-(trifluoromethyl)quinoline-3-carboxamide]
CNC(=O)c1cnc2cc(OC)c(-c3ccc(C(=O)NCCCCNC(=O)CN(C)c4cccc5c4C(=O)N(C4CCC(=O)NC4=O)C5=O)cc3)cc2c1Nc1ccccc1 (centres unmarked) [Compound 345, 6-(4-((4-(2-((2-(2,6-dioxopiperidin-3-yl)-1,3-dioxoisoindolin-4-yl)(methyl)amino)acetamido)butyl)carbamoyl)phenyl)-7-methoxy-N-methyl-4-(phenylamino)quinoline-3-carboxamide]
